Our source for the EC50 values is US20230075856A1, “CYCLIC SULFAMIDE COMPOUNDS FOR TREATMENT OF HBV” (Assembly Biosciences, Inc., priority 2018, published 2023).

Bounds are passed on as bounds.

In one assay the test system is HBV viral load production from HepAD38 cells. Nature of the assay: Viral production from HepAD38 cells: viral load in supernatant by qPCR of the HBV core sequence. The format is cell-based. Conditions: 5 days incubation, qPCR of supernatant HBV DNA vs DMSO control, read-out: viral load lowering EC50 (Activity). Summed up:
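Viral load was measured by qPCR of the HBV core region in supernatant, quantified against DNA standards and compared with DMSO wells. Cells (50,000/well, tetracycline withdrawn, 2% FBS) received compound from 10 μM final for 5 days; EC50 from four-parameter nonlinear regression.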
(In general: Quantitative PCR measures a nucleic acid by following its amplification.)
The EC50 is the concentration at which the effect is half-maximal. In the case of `CN1C(C(=O)Nc2ccc(F)c(Cl)c2)CC(C(=O)N[C@@H]2CCN(c3ccnc(Cl)c3)C2)NS1(=O)=O` (single isomer, unassigned) [1055-R-ISOMER-B], the EC50 is below 50 nM.

Turning to `CN1C(C(=O)Nc2ccc(F)c(Cl)c2)CC(C(=O)NCc2cnc(-c3ccc(C#CCN4CCCCC4)cc3)s2)NS1(=O)=O` (single isomer, unassigned) [Compound 946-ISOMER-B, N3-(3-chloro-4-fluoro-phenyl)-2-methyl-1,1-dioxo-N5-[[2-[4-[3-(1-piperidyl)prop-1-ynyl]phenyl]thiazol-5-yl]methyl]-1,2,6-thiadiazinane-3,5-dicarboxamide], the EC50 lay in the range of 100 to 10000 nM.

Regarding `CC(C)OC(=O)N1CCC(NC(=O)C2CC(C(=O)Nc3ccc(F)c(Cl)c3)N(C)S(=O)(=O)N2)CC1` (single isomer, unassigned) [Compound 766-ISOMER-B, isopropyl 4-[[5-[(3-chloro-4-fluoro-phenyl)carbamoyl]-6-methyl-1,1-dioxo-1,2,6-thiadiazinane-3-carbonyl]amino]piperidine-1-carboxylate], the EC50 was in the range of 50 to 100 nM.

As to `CN1C(C(=O)Nc2ccc(F)c(Cl)c2)CC(C(=O)NCc2cnc(-c3ccc(F)cc3)s2)NS1(=O)=O` (single isomer, unassigned) [Compound 916-ISOMER-B, N3-(3-chloro-4-fluoro-phenyl)-N5-[[2-(4-fluorophenyl)thiazol-5-yl]methyl]-2-methyl-1,1-dioxo-1,2,6-thiadiazinane-3,5-dicarboxamide], the EC50 was below 50 nM.

As for `Cc1nc(-c2ccccc2Cl)sc1CNC(=O)C1CC(C(=O)Nc2ccc(F)c(Cl)c2)N(C)S(=O)(=O)N1` (single isomer, unassigned) [1015-ISOMER-B, N3-(3-Chloro-4-fluoro-phenyl)-N5-[[2-(2-chlorophenyl)-4-methyl-thiazol-5-yl]methyl]-2-methyl-1,1-dioxo-1,2,6-thiadiazinane-3,5-dicarboxamide], the EC50 lay in the range of 50 to 100 nM.

Turning to `CN1C(C(=O)Nc2ccc(F)c(Cl)c2)CC(C(=O)NC2CCCc3nc(-c4ccc(OCCN5CCCCC5)cc4)sc32)NS1(=O)=O` (single isomer, unassigned) [Compound 948-ISOMER-B, N3-(3-chloro-4-fluoro-phenyl)-2-methyl-1,1-dioxo-N5-[2-[4-[2-(1-piperidyl)ethoxy]phenyl]-4,5,6,7-tetrahydro-1,3-benzothiazol-7-yl]-1,2,6-thiadiazinane-3,5-dicarboxamide], the EC50 fell in the range of 100 to 10000 nM.

`COc1ccc(-c2cnc(CNC(=O)C3CC(C(=O)Nc4ccc(F)c(Cl)c4)N(C)S(=O)(=O)N3)s2)cc1` (single isomer, unassigned) [Compound 932-ISOMER-B, N3-(3-chloro-4-fluoro-phenyl)-N5-[[5-(4-methoxyphenyl)thiazol-2-yl]methyl]-2-methyl-1,1-dioxo-1,2,6-thiadiazinane-3,5-dicarboxamide]: the EC50 is below 50 nM.

For `Cc1nc(-c2ccccc2)sc1CNC(=O)C1CC(C(=O)Nc2ccc(F)c(Cl)c2)N(C)S(=O)(=O)N1` (single isomer, unassigned) [Compound 914-ISOMER-B, N3-(3-chloro-4-fluoro-phenyl)-2-methyl-N5-[(4-methyl-2-phenyl-thiazol-5-yl)methyl]-1,1-dioxo-1,2,6-thiadiazinane-3,5-dicarboxamide], the EC50 is 50 to 100 nM.

Still in this assay, the particulars now being: Hepatitis B virus, HePAD38, 120 h, 5 days incubation, qPCR of supernatant HBV DNA vs DMSO control, read-out: viral load lowering EC50 (Activity).
Consider `CN1C(C(=O)Nc2ccc(F)c(Cl)c2)CC(C(=O)NCc2cccc(Cl)c2)NS1(=O)=O` (stereo not drawn) [Compound 730], for which the EC50 was below 50 nM.

For `Cc1ccccc1-c1nc(C)c(CNC(=O)C2CC(C(=O)Nc3ccc(F)c(Cl)c3)N(C)S(=O)(=O)N2)s1` (single isomer, unassigned) [1017-ISOMER-A, N3-(3-chloro-4-fluoro-phenyl)-2-methyl-N5-[[4-methyl-2-(o-tolyl)thiazol-5-yl]methyl]-1,1-dioxo-1,2,6-thiadiazinane-3,5-dicarboxamide], the EC50 was below 50 nM.

Regarding `CN1C(C(=O)Nc2ccc(F)c(Cl)c2)CC(C(=O)NCc2cnc(-c3ccc(O)cc3)s2)NS1(=O)=O` (single isomer, unassigned) [Compound 924-ISOMER-B, N3-(3-chloro-4-fluoro-phenyl)-N5-[[2-(4-hydroxyphenyl)thiazol-5-yl]methyl]-2-methyl-1,1-dioxo-1,2,6-thiadiazinane-3,5-dicarboxamide], the half-maximal effective concentration (EC50) was below 50 nM.

`C[C@H](NC(=O)C1CC(C(=O)Nc2ccc(F)c(Cl)c2)N(C)S(=O)(=O)N1)c1ccc(F)cc1` (stereo partly drawn) [Compound 493-S]: the EC50 was below 50 nM.

In the case of `Cc1nc(-c2ccccc2Cl)sc1C(NC(=O)C1CC(C(=O)Nc2ccc(F)c(Cl)c2)N(C)S(=O)(=O)N1)c1ccccc1` (stereo not drawn) [Compound 1100], the EC50 was in the range of 50 to 100 nM.

With `CC(C)OC1CCC(NC(=O)C2CC(C(=O)Nc3ccc(F)c(Cl)c3)N(C)S(=O)(=O)N2)CC1` (single isomer, unassigned) [Compound 862-ISOMER-A, N3-(3-chloro-4-fluoro-phenyl)-N5-(4-isopropoxycyclohexyl)-2-methyl-1,1-dioxo-1,2,6-thiadiazinane-3,5-dicarboxamide], the EC50 fell in the range of 100 to 10000 nM.

As to `CN1C(C(=O)Nc2ccc(F)c(Cl)c2)CC(C(=O)NCC2CCN(c3ccccn3)CC2)NS1(=O)=O` (stereo not drawn) [Compound 961], the EC50 fell in the range of 100 to 10000 nM.

On to `Cc1ccccc1-c1nc(C)c(CNC(=O)C2CC(C(=O)Nc3ccc(F)c(Cl)c3)N(C)S(=O)(=O)N2)s1` (stereo not drawn) [Compound 1017], for which the EC50 was below 50 nM.

In the case of `CN1C(C(=O)Nc2ccc(F)c(Cl)c2)CC(C(=O)NC2CCN(C(=O)OCc3ccccc3)CC2)NS1(=O)=O` (stereo not drawn) [Compound 852], the EC50 was in the range of 100 to 10000 nM.

As to `COc1cccc(CNC(=O)C2CC(C(=O)Nc3ccc(F)c(Cl)c3)N(C)S(=O)(=O)N2)c1` (stereo not drawn) [Compound 721], the EC50 was below 50 nM.

For the compound `CN1C(C(=O)Nc2ccc(F)c(Cl)c2)CC(C(=O)NCc2csc(-c3ccc(OCCN4CCCCC4)cc3)n2)NS1(=O)=O` (single isomer, unassigned) [Compound 957-ISOMER-A, N3-(3-chloro-4-fluoro-phenyl)-2-methyl-1,1-dioxo-N5-[[2-[4-[2-(1-piperidyl)ethoxy]phenyl]thiazol-4-yl]methyl]-1,2,6-thiadiazinane-3,5-dicarboxamide], the EC50 is below 50 nM.

As to `CN1C(C(=O)Nc2ccc(F)c(Cl)c2)CC(C(=O)NCc2nn(-c3ccccc3)c3ccccc23)NS1(=O)=O` (single isomer, unassigned) [1072-ISOMER-A, N3-(3-chloro-4-fluoro-phenyl)-2-methyl-1,1-dioxo-N5-[(1-phenylindazol-3-yl)methyl]-1,2,6-thiadiazinane-3,5-dicarboxamide], the EC50 was below 50 nM.

Take `CC(NC(=O)C1CC(C(=O)Nc2ccc(F)c(Cl)c2)N(C)S(=O)(=O)N1)c1ccc(F)cc1` (stereo not drawn) [Compound 493]: the EC50 was below 50 nM.

With `CN1C(C(=O)Nc2ccc(F)c(Cl)c2)CC(C(=O)N[C@H]2CCN(c3ccnc(Cl)c3)C2)NS1(=O)=O` (single isomer, unassigned) [1055-S-ISOMER-A], the EC50 lay within 100 to 10000 nM.

For the compound `CN1C(C(=O)Nc2ccc(F)c(Cl)c2)CC(C(=O)NCc2cnc(-c3ccc(OCCCN4CCSCC4)cc3)s2)NS1(=O)=O` (single isomer, unassigned) [Compound 925-ISOMER-A, N3-(3-chloro-4-fluoro-phenyl)-2-methyl-1,1-dioxo-N5-[[2-[4-(3-thiomorpholinopropoxy)phenyl]thiazol-5-yl]methyl]-1,2,6-thiadiazinane-3,5-dicarboxamide], the EC50 was below 50 nM.

For the compound `CN1C(C(=O)Nc2ccc(F)c(Cl)c2)CC(C(=O)NCc2ccccc2Br)NS1(=O)=O` (stereo not drawn) [Compound 821], the EC50 was below 50 nM.

Take `CN1C(C(=O)Nc2ccc(F)c(Cl)c2)CC(C(=O)NC(c2ccccc2)c2cnc(-c3ccccc3)s2)NS1(=O)=O` (stereo not drawn) [Compound 1067]: the EC50 was below 50 nM.

For the compound `COc1ccc(-c2ncc(CNC(=O)C3CC(C(=O)Nc4ccc(F)c(Cl)c4)N(C)S(=O)(=O)N3)s2)c(Cl)c1` (stereo not drawn) [Compound 988], the half-maximal effective concentration (EC50) was below 50 nM.

Take `Cc1ncc(CNC(=O)C2CC(C(=O)Nc3ccc(F)c(Cl)c3)N(CC(F)(F)F)S(=O)(=O)N2)s1` (single isomer, unassigned) [Compound 891-ISOMER-A, N3-(3-chloro-4-fluoro-phenyl)-N5-[(2-methylthiazol-5-yl)methyl]-1,1-dioxo-2-(2,2,2-trifluoroethyl)-1,2,6-thiadiazinane-3,5-dicarboxamide]: the EC50 was in the range of 100 to 10000 nM.

For `CN1C(C(=O)Nc2ccc(F)c(Cl)c2)CC(C(=O)NCCC2CCCO2)NS1(=O)=O` (stereo not drawn) [Compound 1161], the EC50 is 100 to 10000 nM.

Take `CN1C(C(=O)Nc2ccc(F)c(Cl)c2)CC(C(=O)NCc2nc(C(F)(F)F)cs2)NS1(=O)=O` (single isomer, unassigned) [1202-ISOMER-A, N3-(3-chloro-4-fluoro-phenyl)-2-methyl-1,1-dioxo-N5-[[4-(trifluoromethyl)thiazol-2-yl]methyl]-1,2,6-thiadiazinane-3,5-dicarboxamide]: the EC50 lay within 100 to 10000 nM.

`CN(C)CC(C)(C)COc1ccc(-c2ncc(CNC(=O)C3CC(C(=O)Nc4ccc(F)c(Cl)c4)N(C)S(=O)(=O)N3)s2)cc1` (stereo not drawn) [Compound 943]: the EC50 was below 50 nM.

For `CN1C(C(=O)Nc2ccc(F)c(Cl)c2)CC(C(=O)NCc2cc(-c3ccc(F)cc3)n(C)n2)NS1(=O)=O` (single isomer, unassigned) [1151-ISOMER-A, N3-(3-chloro-4-fluoro-phenyl)-N5-[[5-(4-fluorophenyl)-1-methyl-pyrazol-3-yl]methyl]-2-methyl-1,1-dioxo-1,2,6-thiadiazinane-3,5-dicarboxamide], the EC50 is below 50 nM.

In the case of `Cc1nc(-c2ccc(F)cc2)sc1CNC(=O)C1CC(C(=O)Nc2ccc(F)c(Cl)c2)N(C)S(=O)(=O)N1` (stereo not drawn) [Compound 1056], the EC50 is below 50 nM.

As for `CN1C(C(=O)Nc2ccc(F)c(Cl)c2)CC(C(=O)NCc2nc(C(F)(F)F)cs2)NS1(=O)=O` (stereo not drawn) [Compound 1202], the EC50 lay in the range of 100 to 10000 nM.
